Tests used:
[1] = tested on: V. harveyi reporter strain BB170 (Sensor 1−, Sensor 2+); assay type: cell-based, Vibrio harveyi; conditions: candidates for the signal tested
Protocol: Cell-free culture fluids from E. coli, S. typhimurium and V. harveyi strains were tested for the presence of signaling substances that could induce luminescence in the V. harveyi reporter strain BB170 or BB886. […] Positive control wells contained 10 μl of cell-free culture fluid from strain V. harveyi BB152 (Autoinducer-1^−, Autoinducer-2^+) or V. harveyi BB120 (Autoinducer-1^+, Autoinducer-2^+). Negative control wells contained 10 μl of sterile growth medium. The microtiter dishes were shaken in a rotary shaker at 175 rpm at 30° C.
The cell density was measured by diluting the same aliquots of cells used for measuring luminescence, spreading the dilutions onto solid LM medium, incubating the plates overnight at 30° C., and counting the resulting colonies the following day. […] Cell-free culture supernatants from V. harveyi or S. typhimurium strains were added to a final concentration of 10% (v/v) at the time of the first measurement. In control experiments, 10% (v/v) of AB medium, LB medium or LB medium containing 0.5% glucose was added instead of cell-free culture fluids.

[2] = tested on: V. harveyi reporter strain BB886 (Sensor 1+, Sensor 2−); test: V. harveyi BB886 luminescence stimulation bioassay; assay type: cell-based, Vibrio harveyi; conditions: non self-stimulating sensor-1+, sensor-2− mutant (BB886)
Protocol: Assay for production of signaling compounds. Cell-free culture fluids from E. coli, S. typhimurium and V. harveyi strains were tested for the presence of signaling substances that could induce luminescence in the V. harveyi reporter strain BB170 or BB886. In the assays, 10 μl of cell-free culture fluids from E. coli ABI157, E. coli DH5, and S. typhimurium LT2 strains grown and harvested as described above were added to 96-well microtiter dishes. The V. harveyi reporter strain BB170 or BB886 was grown for 16 h at 30° C. with aeration in AB medium, diluted 1:5000 into fresh AB medium, and 90 µl of the diluted cells were added to the wells containing the E. coli and S. typhimurium cell-free culture fluids. Positive control wells contained 10 μl of cell-free culture fluid from strain V. harveyi BB152 (Autoinducer-1^−, Autoinducer-2^+) or V. harveyi BB120 (Autoinducer-1^+, Autoinducer-2^+). Negative control wells contained 10 μl of sterile growth medium. […] Every hour, light production was measured using a Wallac Model 1450 Microbeta Plus liquid scintillation counter in the chemiluminescence mode. The V. harveyi cell density was measured by diluting the same aliquots of cells used for measuring luminescence, spreading the dilutions onto solid LM medium (Bassler et al., 1993, supra), incubating the plates overnight at 30° C., and counting the resulting colonies the following day. […]

| Structure (SMILES) | activity (induction of luminescence expression in V. harveyi) [1] | lowest concentration to which the assay was sensitive [2] [nM] |
| --- | --- | --- |
| O=C(O)CCC(=O)C(=O)O [-ketoglutarate, reference compound] | None of these compounds has activity | – |
| C[C@@H](O)CC(=O)N[C@H]1CCOC1=O [AI-1, N-(3-hydroxybutanoyl)-L-homoserine lactone, reference compound] | – | 100 |
| CC(=O)O [acetate, reference compound] | None of these compounds has activity | – |
| N[C@H]1CCOC1=O [homoserine lactone, reference compound] | None of these compounds has activity | – |
